Columns and labels:
Type in all cases: biochemical
[1] = molecular target: T1, VldB (Streptomyces hygroscopicus, UniProt Q15JG4); assay: HPLC and ESI-MS of product; details: valienol 1-phosphate as co-substrate; 1 mM Mg2+
T1 sequence (Q15JG4 1-373): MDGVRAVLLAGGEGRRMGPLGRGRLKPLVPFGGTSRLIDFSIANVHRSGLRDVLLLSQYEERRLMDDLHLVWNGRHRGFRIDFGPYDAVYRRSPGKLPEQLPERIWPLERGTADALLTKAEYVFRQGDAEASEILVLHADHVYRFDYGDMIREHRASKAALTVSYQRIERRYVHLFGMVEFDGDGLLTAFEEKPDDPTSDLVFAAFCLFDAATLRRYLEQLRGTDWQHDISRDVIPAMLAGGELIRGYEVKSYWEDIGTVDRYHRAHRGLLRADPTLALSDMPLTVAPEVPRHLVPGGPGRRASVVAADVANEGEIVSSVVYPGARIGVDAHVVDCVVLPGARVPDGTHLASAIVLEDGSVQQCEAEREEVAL

[2] = molecular target: T2, VldH (Streptomyces hygroscopicus, UniProt Q15JF8); assay: ESI-MS of product; details: 5 mM substrate, 10 mM MgCl2, 50 mM Tris-HCl pH 7.5, 1.5 h
T2 sequence (Q15JF8 1-213): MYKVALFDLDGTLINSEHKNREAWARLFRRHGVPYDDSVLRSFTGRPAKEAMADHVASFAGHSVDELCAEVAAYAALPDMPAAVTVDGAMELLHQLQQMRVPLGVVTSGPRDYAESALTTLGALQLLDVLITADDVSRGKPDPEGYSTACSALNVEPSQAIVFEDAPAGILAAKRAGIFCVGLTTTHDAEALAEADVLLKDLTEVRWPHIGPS

[3] = molecular target: T3, OtsA (Escherichia coli, UniProt P31677); assay: ESI-MS of product; details: UDP-glucose and glucose 6-phosphate as substrates; 5 mM MgCl2, 50 mM Tris-HCl pH 7.5
T3 sequence (P31677 1-474): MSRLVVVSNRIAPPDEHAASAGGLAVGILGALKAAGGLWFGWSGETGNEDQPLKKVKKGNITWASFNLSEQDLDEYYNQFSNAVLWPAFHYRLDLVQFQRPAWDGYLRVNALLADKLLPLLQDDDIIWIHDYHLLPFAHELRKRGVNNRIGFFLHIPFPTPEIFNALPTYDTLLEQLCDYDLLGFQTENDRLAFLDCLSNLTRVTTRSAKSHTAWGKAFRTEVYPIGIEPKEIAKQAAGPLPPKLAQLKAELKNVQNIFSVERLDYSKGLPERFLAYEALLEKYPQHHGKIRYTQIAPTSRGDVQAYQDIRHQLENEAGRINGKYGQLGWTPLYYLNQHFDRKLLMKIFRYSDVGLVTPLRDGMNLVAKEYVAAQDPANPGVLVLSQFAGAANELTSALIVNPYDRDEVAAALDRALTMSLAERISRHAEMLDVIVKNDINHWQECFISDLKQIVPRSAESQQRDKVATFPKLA

Question: Nc1nc2c(ncn2[C@@H]2O[C@H](COP(=O)(O)OP(=O)(O)OP(=O)(O)O)[C@@H](O)[C@H]2O)c(=O)[nH]1 [GTP] was tested. Which “HPLC and ESI-MS of product” value [1] did it give?
Answer: effectively catalyzes the conversion of valienol 1-phosphate to GDP-valienol

Question: O=P(O)(O)OC[C@H]1O[C@H](O[C@H]2O[C@H](CO)[C@@H](O)[C@H](O)[C@H]2O)[C@H](O)[C@@H](O)[C@@H]1O [trehalose 6-phosphate] was tested. Which ESI-MS of product [2] did it give?
Answer: VldH was able to catalyze dephosphorylation of trehalose 6-phosphate to give trehalose

Question: What about the ESI-MS of product [3] of the same molecule?
Answer: the recombinant OtsA can catalyze the formation of trehalose 6-phosphate
